PMC7576608, “Mechanisms of telomerase inhibition by oxidized and therapeutic dNTPs” (Nature Communications, 2020)
Several values for one entry are separate records, joined by “and”; a condition that tells them apart may be missing. Equal values may be shown once.

Molecular target: telomerase (Homo sapiens, UniProt O14746)
Experiment: Direct telomerase assay in the absence or presence of POT1-TPP1 (processivity R1/2)
Type: biochemical
Parameters: made in house; POT1: baculovirus-infected Sf9; TPP1-N: E. coli BL21(DE3) pLysS
Settings: analog substituted for its natural dNTP, other dNTPs at cellular concentration
From the text: Next we tested whether the telomerase processivity factor POT1–TPP1 modulates modified dNTP inhibition of telomerase. POT1 binds to the telomeric ssDNA overhang, requiring the minimum sequence of 5′-[…]-3′[38]. Inclusion of POT1-binding partner TPP1, increases the binding affinity for telomeric DNA ten-fold compared to POT1 alone. POT1–TPP1 recruits telomerase to telomeres in vivo[39], and greatly increases telomerase repeat processivity. Therefore, we reasoned that POT1–TPP1 may overcome inhibition by the modified dNTPs and enhance telomerase processivity. We conducted telomerase extension reactions with radiolabeled primer in the presence of POT1–TPP1, and used a primer with a single mutation ([…]; underlined G to C mutation)[40] to ensure POT1–TPP1 is positioned at the 5′ portion of the primer (Fig. 5). This provides a homogenous substrate for telomerase extension.
For these reactions, we replaced the natural dNTP with the modified dNTP analog, while the other dNTPs remained at cellular relevant concentrations.
Direct telomerase assays were conducted in the absence or presence of 500 nM POT1 and 500 nM TPP1, as indicated, and 5 nM ^32P-end labeled primer ([…]) designed to position POT1 at the 10 nt primer 5′ end. Reactions contained cellular-concentration dNTPs (lanes 1 and 2), except when the natural dNTP was substituted with the oxidized dNTP a or therapeutic dNTP b analog (lanes 3–8), as indicated. […] Letters on the right indicate template base; P indicates unextended 18-mer primer. c Processivity was calculated on the basis of total products normalized to loading control. Images are representative of, and data are shown as mean ± s.d. from 3 to 5 independent experiments. Source data are provided as a Source Data file.
The reactions were started by the addition of 3 μl of immunopurified telomerase eluent, incubated at 37 °C for 1 h, then terminated with 2 μl of […] and heat inactivated at 65 °C for 20 min. An equal volume of loading buffer (94% formamide, 0.1× TBE, 0.1% bromophenol blue, 0.1% xylene cyanol) was added to the reaction eluent. The samples were heat denatured for 10 min at 100 °C and loaded onto a 14% denaturing acrylamide gel (7 M urea, 1× TBE) and electrophoresed for 90 min at constant 38 W. Samples were imaged using a Typhoon phosphorimager (GE Healthcare). Percent primer extension was calculated with ImageQuant TL 8.2 by measuring the intensity of each product band and dividing by the total radioactivity in the lane or total products, as indicated in the figure legends.
The processivity was calculated as described[40],[67]. Repeat processivity from the direct telomerase extension assays was calculated as R1/2 (equivalent to the half-time for decay in an exponential time course), which represents the median length of DNA product formed, expressed in terms of number of telomere repeats. First, the total volume counts for each product band extend by one or more telomere repeats were obtained using Image Quant TL. The volume counts were then normalized by dividing by the number of radiolabeled guanosines incorporated into the extended products based on the number of repeats added, termed corrected volume (corr vol). The “percent left behind” (%LB) was calculated for each product band by summing the counts for that product band and for every product band below (shorter products), divided by the total counts for the lane, and then multiplied by 100. The natural log of (100−%LB) was calculated and then plotted vs. repeat number for each product length. A linear regression line was fit to the data to determine the slope of the line.

[1] = 500 nM POT1 and 500 nM TPP1, Mean
[2] = 500 nM POT1 and 500 nM TPP1, n1-n3

Compound | Processivity R 1/2 [1] | Processivity R 1/2 (500 nM POT1 and 500 nM TPP1, Mean, listed as 2dA) | Processivity R 1/2 (500 nM POT1 and 500 nM TPP1, n1-n3, listed as 2dA) | Processivity R 1/2 (Control (no POT1-TPP1), Mean) | Processivity R 1/2 (Control (no POT1-TPP1), Mean, listed as 2dA) | Processivity R 1/2 (Control (no POT1-TPP1), n1-n3, listed as 2dA) | Processivity R 1/2 [2] | Processivity R 1/2 (Control (no POT1-TPP1), n1-n3) | Processivity R 1/2 (500 nM POT1 and 500 nM TPP1, n1-n3, listed as 8dA)
Nc1nc(O)nc2c1ncn2C1CC(O)C(COP(=O)(O)OP(=O)(O)OP(=O)(O)O)O1 (centres unmarked) [2-OH-dATP] | 2.3 | 2.27 | 2.20 and 2.10 and 2.50 | 0.5 | 0.49 | 0.49 and 0.48 and 0.51 |  |  | 
Nc1nc2c(ncn2C2CC(O)C(COP(=O)(O)OP(=O)(O)OP(=O)(O)O)O2)c(=S)[nH]1 (centres unmarked) [6-thio-dGTP] | 0.00 |  |  | 0.00 |  |  | 0.00 | 0.00 | 
Nc1ncnc2c1[nH]c(=O)n2C1CC(O)C(COP(=O)(O)OP(=O)(O)OP(=O)(O)O)O1 (centres unmarked) [8-oxo-dATP] | 1.31 |  |  | 0.00 |  |  |  | 0.00 | 1.15 and 1.30 and 1.47
Nc1nc2c([nH]c(=O)n2C2CC(O)C(COP(=O)(O)OP(=O)(O)OP(=O)(O)O)O2)c(=O)[nH]1 (centres unmarked) [8-oxo-dGTP] | 0.00 |  |  | 0.00 |  |  | 0.00 | 0.00 | 
Cc1cn([C@H]2C[C@H](N=[N+]=[N-])[C@@H](CO[P@](=O)(O)O[P@](=O)(O)OP(=O)(O)O)O2)c(=O)[nH]c1=O [AZT-TP] | 0.00 |  |  | 0.00 |  |  | 0.00 | 0.00 | 
O=c1[nH]cnc2c1ncn2C1CCC(COP(=O)(O)OP(=O)(O)OP(=O)(O)O)O1 (centres unmarked) [ddITP] | 0.00 |  |  | 0.00 |  |  | 0.00 | 0.00 | 
